In PubChem BioAssay (NCI):
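96-well plates; 48 h exposure; 5 concentrations. Endpoints by linear interpolation between flanking doses. Not reached: highest tested concentration assigned. At the GI50, growth is halved. TGI denotes the concentration required for complete inhibition of growth.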

Columns and labels:
Experiment in all cases: growth of human tumour cells (NCI), 48 h
[1] = test system: SK-MEL-28 melanoma
[2] = test system: SW-620 colon
[3] = test system: NCI/ADR-RES ovarian
[4] = test system: MDA-MB-231 breast
[5] = test system: UACC-257 melanoma
[6] = test system: NCI-H23 lung
[7] = test system: SN12C renal
[8] = test system: NCI-H460 lung
[9] = test system: SNB-19 CNS
[10] = test system: OVCAR-8 ovarian
[11] = test system: HOP-92 NSCLC
[12] = test system: U251 CNS
[13] = test system: M14 melanoma
[14] = test system: SF-539 CNS
[15] = test system: HL-60(TB) leukemia
[16] = test system: 786-0 renal
[17] = test system: BT-549 breast
[18] = test system: NCI-H226 lung
[19] = test system: SF-295 CNS
[20] = test system: CCRF-CEM leukemia
[21] = test system: ACHN renal
[22] = test system: K-562 leukemia
[23] = test system: SF-268 CNS
[24] = test system: LOX IMVI melanoma
[25] = test system: COLO 205 colon
[26] = test system: IGROV1 ovarian
[27] = test system: NCI-H522 lung
[28] = test system: HS 578T breast
[29] = test system: HT29 colon
[30] = test system: HCT-116 colon
[31] = test system: RXF 393 renal
[32] = test system: DU-145 prostate
[33] = test system: MALME-3M melanoma
[34] = test system: UO-31 renal
[35] = test system: HCC-2998 colon
[36] = test system: OVCAR-3 ovarian
[37] = test system: SK-MEL-5 melanoma
[38] = test system: OVCAR-5 ovarian
[39] = test system: HCT-15 colon
[40] = test system: TK-10 renal
[41] = test system: A498 renal
[42] = test system: T-47D breast
[43] = test system: MDA-MB-435
[44] = test system: A549 NSCLC
[45] = test system: KM12 colon
[46] = test system: CAKI-1 renal
[47] = test system: MDA-MB-468 breast
[48] = test system: MCF7 breast
[49] = test system: PC-3 prostate
[50] = test system: UACC-62 melanoma
[51] = test system: SK-OV-3 ovarian
[52] = test system: SR leukemia
[53] = test system: MOLT-4 leukemia
[54] = test system: HOP-62 NSCLC
[55] = test system: OVCAR-4 ovarian
[56] = test system: RPMI-8226 leukemia
[57] = test system: SK-MEL-2 melanoma
[58] = test system: SNB-75 CNS
[59] = test system: EKVX NSCLC

## Nc1nc(-c2ccccc2)c(N=Nc2ccc(Cl)cc2Cl)s1
[1]
  GI50: 4690 nM
  TGI: 16.5 µM
[2]
  GI50: 2880 nM
  TGI: 13.5 µM
[3]
  GI50: 3.03 µM
  TGI: 10.9 µM
[4]
  GI50: 2190 nM
  TGI: 8.67 µM
[5]
  GI50: 4130 nM
  TGI: 16.3 µM
[6]
  GI50: 2910 nM
  TGI: 13.5 µM
[7]
  GI50: 3810 nM
  TGI: 15.3 µM
[8]
  GI50: 2920 nM
  TGI: 11.7 µM
[9]
  GI50: 6.02 µM
  TGI: 18.7 µM
[10]
  GI50: 5.82 µM
  TGI: 18.7 µM
[11]
  GI50: 1850 nM
  TGI: 5.86 µM
[12]
  GI50: 4280 nM
  TGI: 15.8 µM
[13]
  GI50: 2880 nM
  TGI: 9.54 µM
[14]
  GI50: 2780 nM
  TGI: 10.5 µM
[15]
  GI50: 3420 nM
  TGI: 12.9 µM
[16]
  GI50: 2480 nM
  TGI: 6.34 µM
[17]
  GI50: 2430 nM
  TGI: 9.74 µM
[18]
  GI50: 2110 nM
  TGI: 10.4 µM
[19]
  GI50: 3230 nM
  TGI: 13.2 µM
[20]
  GI50: 3130 nM
  TGI: 11 µM
[21]
  GI50: 2810 nM
  TGI: 12.9 µM
[22]
  GI50: 3580 nM
  TGI: 14.9 µM
[23]
  GI50: 4910 nM
  TGI: 17.8 µM
[24]
  GI50: 1830 nM
  TGI: 5.17 µM
[25]
  GI50: 3910 nM
  TGI: 14.1 µM
[26]
  GI50: 2130 nM
  TGI: 12.7 µM
[27]
  GI50: 2910 nM
  TGI: 13.3 µM
[28]
  GI50: 3.14 µM
  TGI: 17.8 µM
[29]
  GI50: 3310 nM
  TGI: 10.9 µM
[30]
  GI50: 3330 nM
  TGI: 12.6 µM
[31]
  GI50: 3020 nM
  TGI: 11.7 µM
[32]
  GI50: 5.52 µM
  TGI: 17.8 µM
[33]
  GI50: 5380 nM
  TGI: 18.1 µM
[34]
  GI50: 1450 nM
  TGI: 11.7 µM
[35]
  GI50: 1840 nM
  TGI: 5.41 µM
[36]
  GI50: 3570 nM
  TGI: 13.2 µM
[37]
  GI50: 2600 nM
  TGI: 8.66 µM
[38]
  GI50: 3580 nM
  TGI: 15.4 µM
[39]
  GI50: 2810 nM
  TGI: 11.7 µM
[40]
  GI50: 5.25 µM
  TGI: 14.9 µM
[41]
  GI50: 6.03 µM
  TGI: 18.4 µM
[42]
  GI50: 1030 nM
  TGI: 6.56 µM
[43]
  GI50: 3740 nM
  TGI: 14.4 µM
[44]
  GI50: 3670 nM
  TGI: 14.7 µM
[45]
  GI50: 2990 nM
  TGI: 12.8 µM
[46]
  GI50: 2520 nM
  TGI: 12.3 µM
[47]
  GI50: 830 nM
  TGI: 3880 nM
[48]
  GI50: 2160 nM
  TGI: 10.9 µM
[49]
  GI50: 3160 nM
  TGI: 12.4 µM
[50]
  GI50: 2450 nM
  TGI: 12 µM
[51]
  GI50: 3860 nM
  TGI: 16.3 µM
[52]
  GI50: 3100 nM
  TGI: 12.8 µM
[53]
  GI50: 2730 nM
  TGI: 10.3 µM
[54]
  GI50: 4010 nM
  TGI: 18.4 µM
[55]
  GI50: 3820 nM
  TGI: 17 µM
[56]
  GI50: 3310 nM
  TGI: 15.2 µM
[57]
  GI50: 3.03 µM
  TGI: 12.8 µM
[58]
  GI50: 1570 nM
  TGI: 8.52 µM
[59]
  GI50: 2040 nM
  TGI: 12.3 µM

## CC[C@]12C=CCN3CC[C@@]4(c5ccc(OC)cc5N(C)[C@H]4[C@@](O)(C(=O)OC)[C@@H]1OC(=O)CCCC[P+](c1ccc(C)cc1)(c1ccc(C)cc1)c1ccc(C)cc1)[C@@H]32
[1]
  GI50: 437 nM
  TGI: 1.6 µM
[2]
  GI50: 601 nM
  TGI: 1.96 µM
[3]
  GI50: 12 µM
  TGI: 34.4 µM
[4]
  GI50: 238 nM
  TGI: 0.654 µM
[5]
  GI50: 562 nM
  TGI: 1.9 µM
[6]
  GI50: 512 nM
  TGI: 1.5 µM
[7]
  GI50: 410 nM
  TGI: 1.38 µM
[8]
  GI50: 498 nM
  TGI: 1.71 µM
[9]
  GI50: 0.342 µM
  TGI: 1.32 µM
[10]
  GI50: 1.13 µM
  TGI: 2.49 µM
[11]
  GI50: 295 nM
  TGI: 1.16 µM
[12]
  GI50: 332 nM
  TGI: 1.41 µM
[13]
  GI50: 558 nM
  TGI: 1.67 µM
[14]
  GI50: 588 nM
  TGI: 1.62 µM
[15]
  GI50: 191 nM
  TGI: 0.56 µM
[16]
  GI50: 902 nM
  TGI: 2.37 µM
[17]
  GI50: 389 nM
  TGI: 1.15 µM
[18]
  GI50: 336 nM
  TGI: 1.45 µM
[19]
  GI50: 691 nM
  TGI: 1.87 µM
[20]
  GI50: 476 nM
  TGI: 2.06 µM
[21]
  GI50: 1800 nM
  TGI: 4.59 µM
[22]
  GI50: 300 nM
  TGI: 1.87 µM
[23]
  GI50: 692 nM
  TGI: 2.11 µM
[24]
  GI50: 541 nM
  TGI: 1.64 µM
[25]
  GI50: 200 nM
  TGI: 0.384 µM
[26]
  GI50: 351 nM
  TGI: 1.15 µM
[27]
  GI50: 296 nM
  TGI: 1.06 µM
[29]
  GI50: 268 nM
  TGI: 0.783 µM
[30]
  GI50: 342 nM
  TGI: 1.46 µM
[31]
  GI50: 329 nM
  TGI: 1.24 µM
[32]
  GI50: 0.728 µM
  TGI: 4.31 µM
[33]
  GI50: 482 nM
  TGI: 1.1 µM
[34]
  GI50: 2040 nM
  TGI: 7.11 µM
[35]
  GI50: 416 nM
  TGI: 1.51 µM
[36]
  GI50: 425 nM
  TGI: 1.56 µM
[37]
  GI50: 590 nM
  TGI: 1.24 µM
[38]
  GI50: 592 nM
  TGI: 1.53 µM
[39]
  GI50: 2020 nM
  TGI: 4.35 µM
[40]
  GI50: 1.04 µM
  TGI: 2.44 µM
[41]
  GI50: 2.09 µM
  TGI: 5.24 µM
[42]
  GI50: 305 nM
  TGI: 1.96 µM
[43]
  GI50: 472 nM
  TGI: 1.52 µM
[44]
  GI50: 632 nM
  TGI: 2.76 µM
[45]
  GI50: 431 nM
  TGI: 1.48 µM
[46]
  GI50: 2850 nM
  TGI: 7.15 µM
[47]
  GI50: 150 nM
  TGI: 476 nM
[48]
  GI50: 278 nM
  TGI: 1.15 µM
[49]
  GI50: 313 nM
  TGI: 1.4 µM
[50]
  GI50: 406 nM
  TGI: 1.18 µM
[51]
  GI50: 535 nM
  TGI: 1.39 µM
[52]
  GI50: 365 nM
  TGI: 1.5 µM
[53]
  GI50: 451 nM
  TGI: 1.78 µM
[54]
  GI50: 731 nM
  TGI: 2 µM
[55]
  GI50: 636 nM
  TGI: 3.77 µM
[56]
  GI50: 202 nM
  TGI: 1.47 µM
[58]
  GI50: 242 nM
  TGI: 0.854 µM
[59]
  GI50: 680 nM
  TGI: 2.59 µM
